This note sets out measurements from patent US12358919B2, “Antibacterial compounds” (Universita' degli Studi di Siena, priority 2019, dated 2025).

Some results are limits rather than exact numbers.

Data set [1] relates to A. baumannii ATCC 17978. The data set can be described thus: Chequerboard analysis with polymyxin E1 (average FIC index). The format is cell-based, Acinetobacter baumannii. The note with it: compound + polymyxin E1.
Data set [2] relates to Escherichia coli CCUG^T. Description: microbe, parasite or virus in culture. The note with it: E. coli CCUG^T. Format: cell-based. The method, boiled down: (§1)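 MICs were determined by CLSI M07 broth dilution, for each compound alone and with a fixed sub-inhibitory concentration of polymyxin E1 (colistin). Potentiation fold is the MIC alone divided by the MIC with polymyxin E.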

Data set [3] concerns Acinetobacter baumannii ATCC 17978. Description: microbe, parasite or virus in culture. The format is cell-based. The note with it: A. baumannii ATCC 17978. Put shortly:
as §1

The test system of data set [4] is Klebsiella pneumoniae ATCC 13833. The data set can be described thus: microbe, parasite or virus in culture. The note with it: K. pneumoniae ATCC 13833. Format: cell-based. The method, boiled down: as §1
In data set [5] the test system is E. coli CCUG^T. The data set can be described thus: Chequerboard analysis with polymyxin E1 (average FIC index). The format is cell-based, Escherichia coli. The note with it: compound + polymyxin E1.
Data set [6] relates to K. pneumoniae ATCC 13833. The data set is described as above. The format is cell-based, Klebsiella pneumoniae. Conditions: compound + polymyxin E1.
Data set [7] has as its system Streptococcus pyogenes ATCC 12344. The data set can be described thus: MIC, broth microdilution (direct antibacterial activity). The format is cell-based. The note with it: ATCC12344, S. pyogenes ATCC 12344, compound alone, 18-24 h, read-out: MIC. Put shortly:
(§2)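 CLSI M07 broth microdilution in Mueller-Hinton broth, inoculum 5×10^5 CFU/mL, compound at 512 to 0.25 mg/L. Plates incubated 18-24 hours at 35±2 °C before MIC reading.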

Data set [8] relates to Enterococcus faecalis ATCC 29212. Described as above. Format: cell-based. The note with it: ATCC29212, E. faecalis ATCC 29212, compound alone, 18-24 h, read-out: MIC. Put shortly:
as §2

Data set [9] can be described thus: in vitro. Format: cell-based. Conditions: human. Here is the method: Growth inhibition or killing of bacteria was investigated using conventional methods widely described in the scientific literature. Parameters such as the Minimum Inhibitory Concentration (MIC) were determined as described in Clinical Laboratory Standard Institute (CLSI) document M07 “Methods for Dilution Antimicrobial Susceptibility Tests for Bacteria That Grow Aerobically, 11th Edition” (2018). Synergistic activity of the compounds described in the present specification were determined by measuring the variation of the MIC's compound in the absence and presence of a sub-inhibitory concentration of a suitable antibacterial agent, such as polymyxin E1. Furthermore, the Fractional Inhibitory Concentrations (FICs) were measured using a chequerboard analysis to determine the average FIC index (FICI), whose value is known to characterize the interaction between two compounds and/or drugs (≤0.5, synergistic interaction; >0.5 and <2, no interaction, additive effect; ≥2, antagonistic interaction). Furthermore, the selectivity of the compounds was investigated by measuring their cytotoxic effect on mammalian cell lines (e.g. HeLa cells).
The selectivity and potential cytotoxic effect of antibacterial compounds is a key aspect of such drugs. […]

Data set [10] relates to Acinetobacter baumannii (N50 strain), multidrug-resistant clinical isolate resistant to polymyxin E1. The data set can be described thus: Time-kill curve analysis (bactericidal activity). Format: cell-based. The note with it: compound 32 mg/L + polymyxin E1 2 mg/L. How it is done: FIG. 1: bactericidal activity on Acinetobacter baumannii (N50 strain) of polymyxin E1, 2 mg/L (square); polymyxin E1, 2 mg/L+compound Ib 32 mg/L (triangles); control (circles).
Several methods were used to investigate the synergistic activity of the compounds, including (a) the determination of the MIC in the presence of a sub-inhibitory concentration of a suitable antibacterial agent, (b) the determination of the average FICI using a chequerboard analysis and (c) the time-kill curve analysis of a suitable agent (at a sub-inhibitory concentration) in the absence and presence of the pyrazolo[4,3-b]pyridin-6-carboxamide compound at a fixed concentration of 2 or 8 mg/L.
The kinetics of bacterial killing offers an additional mean to characterize the antibacterial activity of compounds, also in combination with other antimicrobial agents. Compounds or a combination thereof are defined as bactericides when the viable bacterial load is decreased by at least 3 log10 (EUCAST, cit.).
This analysis was carried with a multidrug-resistant Acinetobacter baumannii clinical isolate showing resistance to polymyxin E1. The time-kill curves were generated starting from a bacterial inoculum of 10^5 CFU/mL. Bacterial count was determined at several time intervals in the absence (control) or presence of 2 mg/L polymyxin E1 (corresponding to the resistance breakpoint, EUCAST, cit.) supplemented with 32 mg/L of compound Ib (FIG. 1).

Setting [11] is: ratio MICcompound/MICcompound+polymyxin E.
[12] abbreviates: with 0.25xMIC polymyxin E1 (0.12 mg/L).

Regarding `CCCCn1c(=O)c(C(=O)NC23CC4CC(CC(C4)C2)C3)c(O)c2nn(C)cc21` [Ib, N-(Adamantan-1-yl)-4-(1-butyl)-4,5-dihydro-7-hydroxy-2-methyl-5-oxo-2H-pyrazolo[4,3-b]pyridin-6-carboxamide], the “Average FIC index” value in data set [1] stood at 0.29; in data set [5], 0.26; in data set [6], 0.30. For the same molecule, the Potentiation fold in [2] (setting [11]) is on record as at least 64; in data set [3] (setting [11]), at least 128; in [4] (setting [11]), at least 64. Moreover, the “MIC in presence of colistin” value in data set [2] (setting [12]) was 8 µg/mL; in data set [3] (with 0.25xMIC polymyxin E1 (0.25 mg/L)), 4 µg/mL; in data set [4] (setting [12]), 8 µg/mL. The MIC is over 512 µg/mL in data set [2] (Escherichia coli, compound alone, read-out: MIC); over 512 µg/mL in data set [3] (Acinetobacter baumannii, ATCC17978, compound alone, read-out: MIC); over 512 µg/mL in data set [4] (Klebsiella pneumoniae, ATCC13833, compound alone, read-out: MIC); 16 µg/mL in [7]; 64 µg/mL in [8]. In [9], the half-maximal inhibitory concentration (IC50) at 24 h is over 256 µg/mL. For the same molecule, the “reduction in the bacterial viable count” value in data set [10] (after 30-60 min of incubation) is “more than 3 log 10”. Also, the “viable count at subsequent time intervals” value in data set [10] (up to 24 hours) is “no viable could be detected”.
